Measurements from patent US12139729B2, “Neurodegenerative disorders” (priority 2013, dated 2024).
Like-named read-outs stand apart in the source and are kept apart here. Residues, ends and D or L forms follow the SMILES beside them. No end group written: not given here.

Tests used:
[1] = biological target: T1, α7nAChR (the α7 nicotinic acetylcholine receptor), allosteric site (Rattus norvegicus, UniProt Q05941); test: [3H] Ivermectin binding assay on PC12 cell membranes
T1 construct: [3H]; host or cells: wild-type PC12 cells
T1 sequence (Q05941 23-502): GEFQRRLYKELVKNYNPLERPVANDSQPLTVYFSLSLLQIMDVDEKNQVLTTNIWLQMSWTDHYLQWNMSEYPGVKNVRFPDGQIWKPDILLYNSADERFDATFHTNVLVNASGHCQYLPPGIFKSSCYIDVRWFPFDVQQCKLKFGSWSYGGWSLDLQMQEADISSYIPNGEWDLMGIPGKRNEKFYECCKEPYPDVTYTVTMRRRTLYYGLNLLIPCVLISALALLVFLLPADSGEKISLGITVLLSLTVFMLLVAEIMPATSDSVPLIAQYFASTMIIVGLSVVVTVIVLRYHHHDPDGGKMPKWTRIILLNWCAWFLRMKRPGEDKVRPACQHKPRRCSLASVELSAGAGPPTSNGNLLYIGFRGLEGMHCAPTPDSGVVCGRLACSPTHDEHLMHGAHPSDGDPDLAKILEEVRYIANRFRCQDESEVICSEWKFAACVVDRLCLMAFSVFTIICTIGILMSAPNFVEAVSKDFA
Experimental: PC12 membranes where obtained to perform binding assays. PC12 cells were grown until confluence on 100 mm plates. Growth medium was removed and ice-cold 50 mM Tris-HCl buffer (pH 7.4) containing 4.5 μg/μ1 aprotinin and 0.1 mM phenylmethylsulphonylfluoride (PMSF) were added. Cells were mechanically detached and pelleted by centrifugation (1040×g) for 4 minutes at 4° C. Pellets were homogenized with a Polytron and centrifuged (13000×g) for 20 minutes at 4° C. The pellets were resuspended in fresh buffer and incubated at 37° C. for 10 minutes to remove endogenous neurotransmitters. The samples were subsequently re-centrifuged. The final pellet was resuspended in buffer and the protein concentration determined using the Bradford Reagent (Sigma-Aldrich, St. Louis, MO). The cell membrane preparation was stored at −80° C.
For the binding with PC12 membranes, each incubation was performed in polystyrene tube (VWR International Ltd; Leicestershire, UK) containing 0.25 ml of membranes diluted in Tris-HCl 50 mM buffer (containing 50 μg of PC12 membranes) with 5 nM [3H] […] Thereafter, samples were filtered through Brandel GB glass fibre filters (MD, USA); pre-soaked in 0.5% polyethylenemine by a Harvester (Brandel; MD, USA). Tubes were washed 3 times with ice cold 50 mM Tris-HCl buffer. Radioactivity in the tubes was counted by scintillation spectrometry using a 300 SL Liquid scintillation counter (Lablogic Systems Limited, UK). Specific binding was determined by subtracting the non-specific (cells treated with Ivermectin 30 μM) value to all the tubes.

[2] = biological target: allosteric site on the α7 nicotinic-receptor (Rattus norvegicus, UniProt Q05941); test: Binding affinity for the allosteric site of the α7 nicotinic-receptor, using tests for viability
Sequence of allosteric site on the α7 nicotinic-receptor (Q05941 23-502): as above

α7 nicotinic receptor = biological target: T2, α7 nicotinic receptor (Rattus norvegicus, UniProt Q05941); test: Acetylcholine-induced calcium influx (Fluo-8) in PC12 cells; type: cell-based
T2 construct: [3H]; host or cells: wild-type PC12 cells
T2 sequence (Q05941 23-502): as above
Experimental: PC12 cells are plated in 200 μl of complete growth medium the day before the experiment in 96 well plates. On the day of the experiment, the Fluo-8 solution (Abcam) is prepared (as provider protocol). Subsequently, 100 μl of growth medium is removed and 100 μl of Fluo-8 solution is added. Treatments with T30 and NBP-14 are added and incubated for 30 minutes in the incubator and 30 minutes room temperature.
After 1 hour, the plate is placed in the fluorescence plate reader (Fluostar). Before reading the fluorescence, acetylcholine (ACh) 100 μM is prepared and placed in the Fluostar injector. For each well, the reading will be formed by a basal fluorescence followed by acetylcholine injection that will induce an increase of calcium via nicotinic receptors. The effects of T30 and NBP-14 are then evaluated.

[3] = Cell Counting Kit-8 (CCK-8) cell viability assay; type: cell-based
Source text: A Cell Counting Kit-8 (CCK-8) was used as an improvement of the SRB technique used before. By utilizing the highly water-soluble tetrazolium salt WST-8, CCK-8 produces a water-soluble formazan dye upon reduction in the presence of an electron carrier. WST-8 is reduced by dehydrogenases in cells to give a yellow colored product (formazan), which is soluble in the tissue culture medium. The amount of the formazan dye generated by the activity of dehydrogenases in cells is directly proportional to the number of living cells. PC12 cells are plated in 200 μl of complete growth medium the day before the experiment in 96 well plates. Treatments with T30 and NBP-14 are added and incubated for 1 hour in the incubator.
Subsequently, 100 μl of growth medium is removed and 10 μl of CCK-8 (Cell Counting Kit-8) solution is added. The plate is incubated for 2 hours in the incubator and then placed in the absorbance plate reader. The absorbance must be measured at 450 nm.

[4] = system: Amyloid Precursor Protein (APP); test: Western blot detection of full-length APP in solubilized PC12 cells; type: cell-based; details: 1 hour
Experimental: PC12 cells are plated with growth medium in Petri Dishes for a week in order to have enough protein to detect APP in PC12 membranes and treated for 1 hour with T30 and NBP-14 before solubilizing the protein. Once the cells have grown until 90% confluence, the growth medium is removed and cells are re-suspended in 2 ml of HBSS. The cells suspension is transferred to a 15 ml tube and centrifuge 5 minutes at 1000 rpm. Then the supernatant is discarded and the pellet is re-suspended in Lysis buffer (20 mM Tris, 137 mM NaCl, 1% Triton X-100, 2 mM EDTA; pH 8) plus protease inhibitors (1 μl:1 ml PMSF and 3 μl:1 ml Aprotinin) and triturated by using a Polytron for 10 seconds. Subsequently, the triturated pellet is distributed in 1.5 ml eppendorfs and rotated or shaken for 2 h at 4° C. […] The Bradford reagent is used to quantify the protein contained in each eppendorf. […]
The steps for electrophoresis are the following: • a) Prepare the lower and the upper acrilamide gels. The % for APP gel is 10% lower gel and 5% stacking gel. • b) Prepare 24 μl of sample at a concentration of 25 μg (determined by the Bradford Assay) (6 μl SB 4× containing β-mercaptoethanol+protein+lisis) and boil them at 100° C. for 5 minutes to denaturalize them. • c) Put the protein marker and the samples in the wells of the gel (20-30 μL). • d) Proceed to Migration: 35 mA (nearly 1 hour). […]

Aβ42 = test: ELISA detection of Aβ42 in cell culture media; type: cell-based; details: 1 hour
Experimental: After 1 hour of treatment, the culture media was collected and diluted to 1:100, using culture media as diluent. Four repeats of each diluted sample were then placed in the plate provided by the ELISA detection kit, from AnaSpec (Fremont, CA, USA). The detection was then carried out following the manufacturer's protocol. Briefly, the sample was incubated for 4 h in presence of 50 μl of detection antibody. The plate was then washed seven times with the washing solution, the samples were then incubated with the 3,3′,5,5′-Tetramethylbenzidine (TMB) provided with the kit for 15 min. after the sample revelation the reaction was stopped with the stop solution and the optical density was read at 450 nm.
Accordingly, using immunodetection, the inventors have determined (i) APP levels and (ii) release of amyloid following administration of T30 (5 uM) and NBP14 (0.5 μM).

## CSCC[C@@H]1NC(=O)[C@H](Cc2ccc(O)cc2)NC(=O)[C@H](CO)NC(=O)[C@H](CO)NC(=O)[C@H](Cc2c[nH]c3ccccc23)NC(=O)[C@H](CCCNC(=N)N)NC(=O)[C@H](Cc2c[nH]cn2)NC(=O)[C@H](Cc2ccccc2)NC(=O)[C@H](CCC(=O)O)NC(=O)[C@H](C)NC(=O)[C@H](CCCCN)NC(=O)[C@H](Cc2c[nH]c3ccccc23)NC(=O)[C@H](Cc2c[nH]cn2)NC(=O)[C@H](C(C)C)NC1=O [Cyclic T14] (cyclo(AEFHRWSSYMVHWK))
[1]; 100 nM competitor, Table 2, N = 6
  % [3H] Ivermectin binding (Mean ± SEM): 98.10 ± 3.28%
[1]; 200 nM competitor, Table 2
  % [3H] Ivermectin binding (Mean ± SEM): 80.81 ± 4.37%
[1]; 500 nM competitor, Table 2
  % [3H] Ivermectin binding (Mean ± SEM): 79.72 ± 6.76%
[1]; 700 nM competitor, Table 2
  % [3H] Ivermectin binding (Mean ± SEM): 62.26 ± 17.63%
[1]; 1 μM competitor, Table 2
  % [3H] Ivermectin binding (Mean ± SEM): 29.006 ± 8.23%
[1]; 2 μM competitor, Table 2
  % [3H] Ivermectin binding (Mean ± SEM): 13.46 ± 10.40%
[2]; ✓ = Dream Drug feature 'Nanomolar affinity'
  affinity (Table 3 feature): ✓
[2]; ✓ = Dream Drug feature 'Specific action at α7 receptor'
  receptor specificity (Table 3 feature): ✓
α7 nicotinic receptor; T30 5 uM + NBP-14 5 nM (1st of 10 values)
  calcium influx, T30 + NBP-14: 134.2497±6.85%
α7 nicotinic receptor; T30 5 uM + NBP-14 7 nM (2nd of 10 values)
  calcium influx, T30 + NBP-14: 120.8612±8.65%
α7 nicotinic receptor; T30 5 uM + NBP-14 9 nM (3rd of 10 values)
  calcium influx, T30 + NBP-14: 113.9162±8.82%
α7 nicotinic receptor; T30 5 uM + NBP-14 10 nM (4th of 10 values)
  calcium influx, T30 + NBP-14: 140.776±12.16%
α7 nicotinic receptor; T30 5 uM + NBP-14 20 nM (5th of 10 values)
  calcium influx, T30 + NBP-14: 115.83±7.67%
α7 nicotinic receptor; T30 5 uM + NBP-14 50 nM (6th of 10 values)
  calcium influx, T30 + NBP-14: 110.3213±13.21%
α7 nicotinic receptor; T30 5 uM + NBP-14 70 nM (7th of 10 values)
  calcium influx, T30 + NBP-14: 125.9596±0.1%
α7 nicotinic receptor; T30 5 uM + NBP-14, 8th of 10 values, only 9 concentrations printed (.. 70, 1000, 5000 nM), concentration unclear
  calcium influx, T30 + NBP-14: 99.85±0.32%
α7 nicotinic receptor; T30 5 uM + NBP-14, 9th of 10 values, concentration unclear
  calcium influx, T30 + NBP-14: 115.1942±9.84%
α7 nicotinic receptor; T30 5 uM + NBP-14, 10th of 10 values, concentration unclear
  calcium influx, T30 + NBP-14: 79.99±14.04%
α7 nicotinic receptor; T30 5 uM, FIG. 13
  concentration range protective against T30-induced calcium influx: low nanomolar range
[3]; T30 5 uM + NBP-14 5 nM (1st of 10 values), read-out: cell viability, T30 + NBP-14
  viability: 76.2 ± 7.51%
[3]; T30 5 uM + NBP-14 7 nM (2nd of 10 values), read-out: cell viability, T30 + NBP-14
  viability: 67 ± 4.35%
[3]; T30 5 uM + NBP-14 9 nM (3rd of 10 values), read-out: cell viability, T30 + NBP-14
  viability: 76 ± 4.22%
[3]; T30 5 uM + NBP-14 10 nM (4th of 10 values), read-out: cell viability, T30 + NBP-14
  viability: 71.4 ± 1.64%
[3]; T30 5 uM + NBP-14 20 nM (5th of 10 values), read-out: cell viability, T30 + NBP-14
  viability: 79 ± 10.2%
[3]; T30 5 uM + NBP-14 50 nM (6th of 10 values), read-out: cell viability, T30 + NBP-14
  viability: 75.2 ± 3.9%
[3]; T30 5 uM + NBP-14 70 nM (7th of 10 values), read-out: cell viability, T30 + NBP-14
  viability: 62.4 ± 3.01%
[3]; T30 5 uM + NBP-14, 8th of 10 values, concentration unclear, read-out: cell viability, T30 + NBP-14
  viability: 78.1 ± 2.16%
[3]; T30 5 uM + NBP-14, 9th of 10 values, concentration unclear, read-out: cell viability, T30 + NBP-14
  viability: 117 ± 3.62%
[3]; T30 5 uM + NBP-14, 10th of 10 values, concentration unclear, read-out: cell viability, T30 + NBP-14
  viability: 108 ± 5.1%
[4]; T30 5 μM + NBP-14 0.5 μM
  levels of full length APP (control 100%): 126%±1.12
Aβ42; T30 (5 uM) + NBP14 (0.5 μM)
  release of Aβ42 in presence of T30 and NBP-14: close to control

## KAEFHRWSSYMVHWKNQFDHYSKQDRCSDL [T30, reference compound]
[1]; 1 nM competitor, Table 1
  % [3H] Ivermectin binding (Mean ± SEM): 109.16 ± 11.9%
[1]; 10 nM competitor, Table 1
  % [3H] Ivermectin binding (Mean ± SEM): 116.63 ± 13.25%
[1]; 100 nM competitor, Table 1
  % [3H] Ivermectin binding (Mean ± SEM): 106.15 ± 8.04%
[1]; 1 μM competitor, Table 1
  % [3H] Ivermectin binding (Mean ± SEM): 97.41 ± 7.9%
[1]; 5 μM competitor, Table 1
  % [3H] Ivermectin binding (Mean ± SEM): 80.22 ± 3.81%
[2]
  binding affinity for the allosteric site on the α7 nicotinic-receptor: 5 nM
α7 nicotinic receptor; PC12 cells
  increase of calcium influx: about 70%
α7 nicotinic receptor; T30 5 uM alone, ACh 100 μM, N=3
  calcium influx (acetylcholine control = 100%): 171.05%±6.21
[3]; T30 5 uM alone, 1 hour, N=3, read-out: cell viability
  viability: 74.3%
[3]; T30 5 uM, read-out: decrease of cell viability
  cytotoxicity: 25%
[4]; T30 5 μM
  levels of full length APP (control 100%): 67.82%±6.23
Aβ42; T30 (5 uM)
  release of Aβ42 compared to control: approximately 175%
